Laboratory results as given in patent US12383535B2, “Hydrogen peroxide-responsive KEAP1-NRF2 ppi inhibitor prodrug, and preparation method therefor” (CHINA PHARMACEUTICAL UNIVERSITY, priority 2019, dated 2025).

Assays:
[1] = Drug release rate by HPLC (H2O2 activation of prodrug); assay type: physicochemical; conditions: in the presence of H2O2, 12 h, UPLC/HRMS
Description: The target compound was dissolved in DMSO to give a 10 mM stock solution, which was then stored at −20° C. The final concentration was brought to 50 μM by adding the target compound (10 mM) to phosphate buffered saline (PBS) (10 mM, pH 7.4), and H2O2 was added. The solution was well vortexed, and then incubated at 37° C. Samples were taken at appropriate time intervals and analyzed by HPLC directly after injection, and the peak areas were recorded to calculate the percentage of the compound. The procedure was repeated three times. The following Agilent 1260 HPLC and DAD detectors were used: Agilent C18 column (4.6×150 mm, 3.5 μm); mobile phase: 70% methanol; flow rate: 0.5 mL/min. A standard curve of the compound was plotted against concentration.
After treatment with 10 mM H2O2, the prodrug pro2 was activated with prolonged incubation time and the active parent compound 2 was completely released within 3 h (HPLC-determined conversion >98%, (B) of FIG. 1 and (C) of FIG. 1).

RAW264.7 cells = assay: IL-1β, IL-6, TNF-α and NO assays in cell culture supernatant; assay type: cell-based, mouse; conditions: Mus musculus, RAW264.7, read-out: EC50 for reduction of extracellular NO concentration
Description: IL-1β (IL-1β (m) ELISA kit, EK0394, Boster), IL-18 (IL-18 (m) ELISA kit, EMC011, NeoBioscience), IL-6 (IL-6 (m) ELISA kit EK0411, Boster), TNF-α (TNF-α (m) ELISA kit, EK0527, Boster) and NO (nitrate/nitrite assay kit, S0023, Beyotime, China) were tested using commercially available kits according to the manufacturer's instructions.
Then, several inflammatory mediators closely related to ROS, including IL-1β, IL-6, TNF-α and NO, were further evaluated.

[2] = test system: Nrf2-ARE in RAW264.7 cells; assay: ARE inductivity under LPS stimulation; assay type: cell-based, mouse; conditions: Mus musculus, RAW264.7, read-out: EC50 of ARE inductivity
[3] = Parallel artificial membrane permeability assay (PAMPA); assay type: in vitro ADME
Description: Potential solubility data were obtained with a pSOL model 3 instrument (pION INC, Cambridge, Massachusetts, USA). Cell membrane permeability was determined on a PAMPA Explorer instrument (pION).
Subsequently, the permeability of cell membranes was measured by standard parallel artificial membrane permeability assay (PAMPA).

SMILES | production of the active parent compound 1 [1] | EC50 (RAW264.7 cells) [µM] | EC50 [2] [µM] | Pe at pH 7.4 [3] | Papp ([3]; pH 7.4, read-out: Pe at pH 7.4) [×10⁻⁶ cm/s]
COc1ccc(S(=O)(=O)N(CC(=O)N2CCSC2=O)c2ccc(N(CC(=O)N3CCSC3=O)S(=O)(=O)c3ccc(OC)cc3)c3ccccc23)cc1 [pro1, N,N′-(naphthalene-1,4-diyl)bis(4-methoxy-N-(2-oxo-2-(2-oxothiazolidin-3-yl)ethyl)benzenesulfonamide)] | no production of the active parent compound 1 could be observed | – | – | – | –
COc1ccc(S(=O)(=O)Nc2ccc(N(CC(=O)O)S(=O)(=O)c3ccc(OC)cc3)c3ccccc23)cc1 [Compound 2, N-(4-((4-methoxyphenyl)sulfonamido)naphthalen-1-yl)-N-((4-methoxyphenyl)sulfonyl)glycine] | – | > 0.12 | > 4.52 | 0.80 10^−6 cm/s | 0.8
